# From publication PMC6324650 (Molecular Pharmacology, 2019)
# Columns and labels:
# [1] = Hydrolysis and cyclization of active NHS ester in PBS; format: physicochemical; conditions: PBS (pH 8.2), ligand coupling conditions
# NK1 receptor = conditions: 37°C; ref Garland et al., 1994; cited from earlier work
Compound,hydrolysis and cyclization of the active NHS ester [1],time to NK1 receptor internalization upon activation (NK1 receptor) [min]
"O=C(CCCC[C@@H]1SC[C@@H]2NC(=O)N[C@@H]21)NCCCOCCOCCOCCCn1cc(CNC(=O)[C@H](CCCCNC(=O)CCC(=O)ON2C(=O)CCC2=O)NC(=O)CCc2ccc(C3(C(F)(F)F)N=N3)cc2)nn1 [probe 1, 2,5-Dioxopyrrolidin-1-yl 4-oxo-4-(((S)-6-oxo-6-(((1-(15-oxo-19-((3aS,4S,6aR)-2-oxohexahydro-1H-thieno[3,4-d]imidazol-4-yl)-4,7,10-trioxa-14-azanonadecyl)-1H-1,2,3-triazol-4-yl)methyl)amino)-5-(3-(4-(3-(trifluoromethyl)-3H-diazirin-3-yl)phenyl)propanamido)hexyl)amino)butanoate]",partial hydrolysis as well as intramolecular cyclization of the active NHS ester were inevitable,
substance P [SP],,3
